Data: patent US11111242B2, “Pyrrolo[2,3-d]pyrimidinyl, pyrrolo[2,3-b]pyrazinyl and pyrrolo[2,3-d]pyridinyl acrylamides” (Pfizer Inc., priority 2013, dated 2021)
Where two headings read alike, the source gives them in different places.

Assays:
[1] = system: IL-15 induced STAT5 phosphorylation in Human Whole Blood (total lymphocytes); assay: HWB IL-15 Induced STAT5 Phosphorylation Assay; assay type: cell-based; conditions: Lymphocyte, IL-15 stimulated, read-out: HWB-IL15-pSTAT5 IC50
Method: HWB IL-15 Induced STAT5 Phosphorylation Assay
After mixing and incubating for 45 minutes at 37° C., 5 μl D-PBS (unstimulated control) or 20× stocks of 5 μl human IL-15 (final concentration is 50 ng/ml) were added, and mixed three times. After incubating 15 minutes at 37° C., 1× Lyse/Fix Buffer (BD Phosflow 5× Lyse/Fix Buffer) was added to all wells at 1000 μl/well, then incubated for 20 minutes at 37° C. and spun 5 mins at 1200 rpm. […] Following incubating at 4° C. over night, all the samples were transferred to 96-well polypropylene U-bottom plate, and checked by flow cytometry gated on total lymphocytes.

[2] = system: IL-15 induced P-STAT5 in human PBMC (total lymphocytes); assay: PBMC IL-15 Induced P-STAT5; assay type: cell-based; conditions: IL-15 stimulated, read-out: PBMC IL15-pSTAT5 IC50
Summary of the method: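 Thawed human PBMC in RPMI, preincubated 30 min at 37 °C, then IL-15 stimulated. Cells methanol-permeabilized (90%, on ice 20 min) and stained for phospho-STAT5. Read by flow cytometry, gated on total lymphocytes.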

Structure (SMILES)	IC50 [1]	IC50 [2]	IC50 ([2]; Homo sapiens, PBMC)
C=CC(=O)N1CC[C@@H](Nc2cnc3[nH]cc(C(=O)NC(C)C)c3n2)[C@@H](F)C1 [Example 320, 2-{[(3S,4R)-1-acryloyl-3-fluoropiperidin-4-yl]amino}-N-(propan-2-yl)-5H-pyrrolo[2,3-b]pyrazine-7-carboxamide]	343 nM	61.1 nM	
C=CC(=O)N1CCC(Nc2cnc3[nH]cc(-c4ccnc(F)c4)c3n2)CC1 [Example 211, 1-(4-{[7-(2-fluoropyridin-4-yl)-5H-pyrrolo[2,3-b]pyrazin-2-yl]amino}piperidin-1-yl)prop-2-en-1-one]	4330 nM	206 nM	
C=CC(=O)N1CCC(Nc2cnc3[nH]cc(-c4cncnc4)c3n2)CC1 [Example 202, 1-(4-{[7-(pyrimidin-5-yl)-5H-pyrrolo[2,3-b]pyrazin-2-yl]amino}piperidin-1-yl)prop-2-en-1-one]	3740 nM	670 nM	
C=CC(=O)N1C[C@@H](C#N)C[C@@H](Nc2ncnc3[nH]ccc23)C1 [Example 58, (3S,5R)-5-((7H-pyrrolo[2,3-d]pyrimidin-4-yl)amino)-1-acryloylpiperidine-3-carbonitrile]	7840 nM	2790 nM	
C=CC(=O)N1CCC(Nc2cnc3[nH]cc(C(=O)N[C@H]4CC[C@H](F)C4)c3n2)CC1 [Example 247, 2-[(1-acryloylpiperidin-4-yl)amino]-N-[(1S,3S)-3-fluorocyclopentyl]-5H-pyrrolo[2,3-b]pyrazine-7-carboxamide]	651 nM		141 nM
C=CC(=O)N1CCC(Nc2cnc3[nH]cc(C(=O)N[C@@H]4CCC[C@@H]4F)c3n2)CC1 [Example 251, 2-[(1-acryloylpiperidin-4-yl)amino]-N-[(1R,2S)-2-fluorocyclopentyl]-5H-pyrrolo[2,3-b]pyrazine-7-carboxamide]	810 nM	73.9 nM	
C=CC(=O)N1C[C@H](F)C[C@@H](Nc2ncnc3[nH]ccc23)C1 [Example 10, 1-((3R,5R)-3-((7H-pyrrolo[2,3-d]pyrimidin-4-yl)amino)-5-fluoropiperidin-1-yl)prop-2-en-1-one]	461 nM		133 nM
C=CC(=O)N1CC[C@H](F)[C@@H](Nc2ncnc3[nH]ccc23)C1 [Example 4, 1-((3S,4S)-3-((7H-pyrrolo[2,3-d]pyrimidin-4-yl)amino)-4-fluoropiperidin-1-yl)prop-2-en-1-one]	115 nM		19.7 nM
C=CC(=O)N1CCC(Nc2cnc3[nH]cc(C(=O)NC4CCC4)c3n2)CC1 [Example 280, 2-[(1-acryloylpiperidin-4-yl)amino]-N-cyclobutyl-5H-pyrrolo[2,3-b]pyrazine-7-carboxamide]	376 nM	39.4 nM	
C=CC(=O)N1CC[C@@H](CNc2cnc3[nH]cc(C(=O)NC(C)C)c3n2)C1 [Example 191, 2-({[(3S)-1-acryloylpyrrolidin-3-yl]methyl}amino)-N-(propan-2-yl)-5H-pyrrolo[2,3-b]pyrazine-7-carboxamide]	9580 nM	2650 nM	
C=CC(=O)N1[C@@H]2CC[C@H]1CN(c1cnc3[nH]cc(C(=O)NC(C)C)c3n1)C2 [Example 301, 2-[(1R,5S)-8-acryloyl-3,8-diazabicyclo[3.2.1]oct-3-yl]-N-(propan-2-yl)-5H-pyrrolo[2,3-b]pyrazine-7-carboxamide]	4900 nM	408 nM	
C=CC(=O)N1CCN(c2cnc3[nH]cc(C(=O)NC(C)C)c3n2)C[C@@H]1CC [Example 299, 2-[(3S)-4-acryloyl-3-ethylpiperazin-1-yl]-N-(propan-2-yl)-5H-pyrrolo[2,3-b]pyrazine-7-carboxamide]	1380 nM	225 nM	
C=CC(=O)N1CCC(Nc2cnc3[nH]cc(C(=O)NCC(F)(F)F)c3n2)CC1 [Example 273, 2-[(1-acryloylpiperidin-4-yl)amino]-N-(2,2,2-trifluoroethyl)-5H-pyrrolo[2,3-b]pyrazine-7-carboxamide]	214 nM	56.7 nM	
C=CC(=O)N1CCC(Nc2cnc3[nH]cc(C(=O)NCCC#N)c3n2)CC1 [Example 261, 2-[(1-acryloylpiperidin-4-yl)amino]-N-(2-cyanoethyl)-5H-pyrrolo[2,3-b]pyrazine-7-carboxamide]	215 nM	214 nM	
C=CC(=O)N1C[C@H](Nc2ncnc3[nH]ccc23)CC[C@@H]1CC (single isomer, unassigned) [Example 9]	578 nM		35.5 nM
C=CC(=O)N1CCC(Nc2cnc3[nH]cc(C(=O)NCC4CCCC4)c3n2)CC1 [Example 270, 2-[(1-acryloylpiperidin-4-yl)amino]-N-(cyclopentylmethyl)-5H-pyrrolo[2,3-b]pyrazine-7-carboxamide]	1220 nM		53.6 nM

The remaining compounds from weak to strong by IC50 [1], led by results:

IC50 [1]	Structure (SMILES)	IC50 [2]	IC50 ([2]; Homo sapiens, PBMC)
4490 nM	C=CC(=O)N1CCN(c2cnc3[nH]cc(C(=O)NC(C)C)c3n2)CC1(C)C [Example 293, 2-(4-acryloyl-3,3-dimethylpiperazin-1-yl)-N-(propan-2-yl)-5H-pyrrolo[2,3-b]pyrazine-7-carboxamide]		300 nM
3290 nM	C=CC(=O)N1CC[C@@H](Nc2cnc3[nH]cc(C(=O)NC(C)C)c3n2)[C@H](O)C1 [Example 196, 2-{[(3R,4R)-1-acryloyl-3-hydroxypiperidin-4-yl]amino}-N-(propan-2-yl)-5H-pyrrolo[2,3-b]pyrazine-7-carboxamide]	1490 nM	
2950 nM	C=CC(=O)N1CC[C@H](Nc2cnc3[nH]cc(C(=O)NC(C)C)c3n2)C1 [Example 171, 2-{[(3S)-1-acryloylpyrrolidin-3-yl]amino}-N-(propan-2-yl)-5H-pyrrolo[2,3-b]pyrazine-7-carboxamide]	726 nM	
2820 nM	C=CC(=O)N1CCC(Nc2cnc3[nH]cc(-c4ccc(F)nc4)c3n2)CC1 [Example 207, 1-(4-{[7-(6-fluoropyridin-3-yl)-5H-pyrrolo[2,3-b]pyrazin-2-yl]amino}piperidin-1-yl)prop-2-en-1-one]	185 nM	
2670 nM	C=CC(=O)N1CCN(c2cnc3[nH]cc(C(=O)NC(C)C)c3n2)C[C@@H]1C [Example 295, 2-[(3S)-4-acryloyl-3-methylpiperazin-1-yl]-N-(propan-2-yl)-5H-pyrrolo[2,3-b]pyrazine-7-carboxamide]	334 nM	
1870 nM	C=CC(=O)N1C[C@H](Nc2ncnc3[nH]ccc23)CCC1(C)C (single isomer, unassigned) [Example 61]		1030 nM
1180 nM	C=CC(=O)N1CCC[C@@H](Nc2ncnc3[nH]cc(CC)c23)C1 [Example 44, 1-{(3R)-3-[(5-ethyl-7H-pyrrolo[2,3-d]pyrimidin-4-yl)amino]piperidin-1-yl}prop-2-en-1-one]	320 nM	
870 nM	C=CC(=O)N1C[C@H](C#N)C[C@@H](Nc2ncnc3[nH]ccc23)C1 [Example 6, (3R,5R)-5-((7H-pyrrolo[2,3-d]pyrimidin-4-yl)amino)-1-acryloylpiperidine-3-carbonitrile]	45.8 nM	
615 nM	C=CC(=O)N1CCC(Nc2cnc3[nH]cc(C(=O)NCC4CC(F)(F)C4)c3n2)CC1 [Example 238, 2-[(1-acryloylpiperidin-4-yl)amino]-N-[(3,3-difluorocyclobutyl)methyl]-5H-pyrrolo[2,3-b]pyrazine-7-carboxamide]		181 nM
505 nM	C=CC(=O)N1C[C@H](Nc2ncnc3[nH]ccc23)C[C@H](OC)C1 [Example 19, 1-((3R,5S)-3-((7H-Pyrrolo[2,3-d]pyrimidin-4-yl)amino)-5-methoxypiperidin-1-yl)prop-2-en-1-one]	139 nM	
489 nM	C=CC(=O)N1CCC(Nc2cnc3[nH]cc(C(=O)NC45CC(C4)C5)c3n2)CC1 [Example 281, 2-[(1-acryloylpiperidin-4-yl)amino]-N-(bicyclo[1.1.1]pent-1-yl)-5H-pyrrolo[2,3-b]pyrazine-7-carboxamide]		31.5 nM
438 nM	C=CC(=O)N1CCC(Nc2cnc3[nH]cc(C(=O)NC4CCCC(F)(F)C4)c3n2)CC1 (stereo not shown) [Example 236, 2-[(1-acryloylpiperidin-4-yl)amino]-N-(3,3-difluorocyclohexyl)-5H-pyrrolo[2,3-b]pyrazine-7-carboxamide]	142 nM	
246 nM	C=CC(=O)N1CC(Nc2cnc3[nH]cc(C(=O)NC(C)C)c3n2)C1 [Example 188, 2-[(1-acryloylazetidin-3-yl)amino]-N-(propan-2-yl)-5H-pyrrolo[2,3-b]pyrazine-7-carboxamide]		155 nM
186 nM	C=CC(=O)N1CCC(Nc2cnc3[nH]cc(C(=O)NCCC(F)(F)F)c3n2)CC1 [Example 246, 2-[(1-acryloylpiperidin-4-yl)amino]-N-(3,3,3-trifluoropropyl)-5H-pyrrolo[2,3-b]pyrazine-7-carboxamide]	43 nM	
153 nM	C=CC(=O)N1CCC[C@@H](Nc2ncnc3[nH]cc(Cl)c23)C1 [Example 3, (R)-1-(3-((5-chloro-7H-pyrrolo[2,3-d]pyrimidin-4-yl)amino)piperidin-1-yl)prop-2-en-1-one]		35.2 nM
136 nM	C=CC(=O)N1CCC(Nc2cnc3[nH]cc(C(=O)NC(C)C)c3n2)CC1 [Example 168, 2-[(1-acryloylpiperidin-4-yl)amino]-N-(propan-2-yl)-5H-pyrrolo[2,3-b]pyrazine-7-carboxamide]		37.1 nM
